Test results from PubChem BioAssay (NCI).
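Following 48 hours of exposure in 96-well plates, responses at five concentrations were used to interpolate endpoints linearly. GI50 marks 50% less growth. TGI denotes the concentration required for complete inhibition of growth.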

How the values were obtained:
Test in all cases: NCI tumour cell line growth inhibition, 48 h
HCC-2998 colon = system: HCC-2998 colon
SK-OV-3 ovarian = system: SK-OV-3 ovarian
A549 NSCLC = system: A549 NSCLC
SF-268 CNS = system: SF-268 CNS
T-47D breast = system: T-47D breast
OVCAR-3 ovarian = system: OVCAR-3 ovarian
786-0 renal = system: 786-0 renal
KM12 colon = system: KM12 colon
HOP-92 NSCLC = system: HOP-92 NSCLC
MOLT-4 leukemia = system: MOLT-4 leukemia

| SMILES | TGI (HCC-2998 colon) | TGI (SK-OV-3 ovarian) | TGI (A549 NSCLC) | TGI (SF-268 CNS) | TGI (T-47D breast) | TGI (OVCAR-3 ovarian) | TGI (786-0 renal) | TGI (KM12 colon) | TGI (HOP-92 NSCLC) | TGI (MOLT-4 leukemia) | GI50 (HCC-2998 colon) | GI50 (SK-OV-3 ovarian) | GI50 (A549 NSCLC) | GI50 (SF-268 CNS) | GI50 (T-47D breast) | GI50 (OVCAR-3 ovarian) | GI50 (KM12 colon) | GI50 (HOP-92 NSCLC) | GI50 (MOLT-4 leukemia) |
| --- | --- | --- | --- | --- | --- | --- | --- | --- | --- | --- | --- | --- | --- | --- | --- | --- | --- | --- | --- |
| OC1(c2ccc3ccccc3c2)c2ccc3ccccc3c2C2=NCCN21 (stereo unspecified) | > 100 µM | > 100 µM | > 100 µM | > 100 µM | > 100 µM | > 100 µM | 69.3 µM | > 100 µM | > 100 µM | > 100 µM | – | – | – | – | – | – | – | – | – |
| O=c1cc(-c2nc3ccccc3[nH]2)[nH]c2nc(-c3nc4ccccc4[nH]3)cc(-c3ccc(Cl)cc3)c12 | – | 46.1 µM | 87.2 µM | 47.5 µM | 83.5 µM | 63.4 µM | – | 64.4 µM | 55 µM | 96.4 µM | – | – | – | – | – | – | – | – | – |
| CCOC(=O)[C@H]1C[C@]23CN(C(=O)OC(C)(C)C)CC[C@H]2CCC2(SCCCS2)[C@@H]3N1C | 65.4 µM | > 100 µM | > 100 µM | > 100 µM | > 100 µM | > 100 µM | > 100 µM | > 100 µM | 51 µM | > 100 µM | – | – | – | – | – | – | – | – | – |
| Cc1ccc(S(=O)(=O)NCCSS(=O)(=O)c2ccc(C)cc2)cc1 | > 100 µM | > 100 µM | 63.5 µM | 46.3 µM | 53.9 µM | – | – | 85.8 µM | > 100 µM | > 100 µM | – | – | – | – | – | – | – | – | – |
| CCOc1cc(NC(C)=O)ccc1C(=O)NN1C(=O)CSC1c1ccc(O)c(OC)c1 (stereo unspecified) | > 100 µM | > 100 µM | > 100 µM | > 100 µM | > 100 µM | > 100 µM | > 100 µM | > 100 µM | > 100 µM | > 100 µM | – | – | – | – | – | – | – | – | – |
| C=CCC1=CC2(OC)C(=O)C(OC)(OC)C1C1C(OC)(OC)C(=O)C(OC)=CC12CC=C (stereo unspecified) | > 100 µM | > 100 µM | > 100 µM | > 100 µM | > 100 µM | > 100 µM | > 100 µM | > 100 µM | > 100 µM | > 100 µM | – | – | – | – | – | – | – | – | – |
| CCOc1ccc2c(c1)NC(=O)C(C1OC(c3ccccc3)=CC1=O)S2 (stereo unspecified) | 37.7 µM | 52.8 µM | 46.8 µM | 63.1 µM | 36.3 µM | 50.1 µM | 80.5 µM | 66.3 µM | – | – | – | – | – | – | – | – | – | – | – |
| FC(F)(F)C1=NC(=NNc2nnc(-c3ccccc3)c(-c3ccccc3)n2)N=C(C(F)(F)F)C1 | > 88.9 µM | > 100 µM | > 100 µM | > 100 µM | – | > 100 µM | – | > 100 µM | > 87.3 µM | > 100 µM | – | – | – | – | – | – | – | – | – |
| CC(C)Cc1cccc(C(C)C)c1NC(=O)CCC(=O)N/N=C1\C(=N/NC(=O)CCC(=O)Nc2c(C(C)C)cccc2C(C)C)C(c2ccc3c(c2)OCO3)Oc2ccccc21 (stereo unspecified) | > 100 µM | > 100 µM | > 100 µM | > 100 µM | – | – | – | > 100 µM | > 100 µM | > 100 µM | – | – | – | – | – | – | – | – | – |
| CN(C)CCC(C(=O)C(C)(C)C)c1ccccn1 (stereo unspecified) | > 100 µM | > 100 µM | > 100 µM | > 100 µM | > 100 µM | 93.6 µM | > 100 µM | > 100 µM | > 100 µM | – | – | – | – | – | – | – | – | – | – |
| C=C1C(=O)OC2/C=C(\C)CC(O)/C=C(/CO)CC(OC(=O)/C(C)=C/C)C12 (stereo unspecified) | 134 µM | 309 µM | 451 µM | 233 µM | – | 122 µM | – | 229 µM | 111 µM | 43.8 µM | – | – | – | – | – | – | – | – | – |
| C[C@H](O)C(=O)SC[C@H](NC(=O)CC[C@@H](N)C(=O)O)C(=O)NCC(=O)O | > 100 µM | > 100 µM | – | > 100 µM | – | > 100 µM | – | > 100 µM | > 100 µM | > 100 µM | – | – | – | – | – | – | – | – | – |
| CS(=O)(=O)OCc1c(O)c2c(c(O)c1COS(C)(=O)=O)C(=O)C=CC2=O | > 100 µM | > 100 µM | > 100 µM | > 100 µM | – | > 100 µM | – | > 100 µM | > 100 µM | > 100 µM | – | – | – | – | – | – | – | – | – |
| CC[N+](CC)(CC)/C(=N/S(=O)(=O)c1cc(C)c(Cl)cc1S)[N-]S(=O)(=O)c1ccc(Cl)cc1 | > 100 µM | > 100 µM | – | > 100 µM | > 100 µM | > 100 µM | > 100 µM | > 100 µM | 49.7 µM | > 100 µM | – | – | – | – | – | – | – | – | – |
| COc1ccc(-n2cc(-c3ccc(OC)c(OC)c3)nc2SCc2ccccc2)cc1Cl | 45.5 µM | > 100 µM | > 100 µM | > 100 µM | > 100 µM | > 100 µM | – | 68.1 µM | 38.6 µM | > 100 µM | 19.3 µM | 66.6 µM | 21.3 µM | 30.4 µM | 9.45 µM | 20.6 µM | 21.3 µM | 6.13 µM | 21.2 µM |
| CC(O)=NC(Cc1ccc2ccccc2c1)C(O)=NC(Cc1ccc(Cl)cc1)C(O)=NC(Cc1c[nH]c2ccccc12)C(O)=NC(CO)C(O)=NC(Cc1ccc(O)cc1)C(O)=NC(CCCN=C(N)N)C(O)=NC(CC(C)C)C(O)=NC(CCCN=C(N)N)C(=O)N1CCCC1C(O)=NC(C)C(=N)O (stereo unspecified) | > 100 µM | 72.3 µM | > 100 µM | > 100 µM | – | > 100 µM | > 100 µM | > 100 µM | > 100 µM | > 100 µM | – | – | – | – | – | – | – | – | – |
| C[C@]12CC[C@H](O)CC1=CC[C@@H]1[C@@H]2CC[C@]2(C)C(=O)CC[C@@H]12 | > 100 µM | > 100 µM | > 100 µM | > 100 µM | > 100 µM | > 100 µM | > 100 µM | > 100 µM | – | > 100 µM | – | – | – | – | – | – | – | – | – |
| CCCc1ccc(OCC(=O)N/N=C/c2c(-c3ccccc3)[nH]c3ccccc23)cc1 | 14.1 µM | > 100 µM | > 100 µM | > 100 µM | 52.4 µM | 95.2 µM | 35.7 µM | 38.5 µM | 35.3 µM | 30.4 µM | – | – | – | – | – | – | – | – | – |
| O=C(/N=C/c1c(O)c2ccccc2oc1=O)NC1CCCCC1 | > 100 µM | – | > 100 µM | > 100 µM | – | – | – | – | > 100 µM | > 100 µM | – | – | – | – | – | – | – | – | – |
| CO[C@]12C[C@H](CNC(=O)c3cc(Br)c(Br)[nH]3)O[C@H]1NC(=O)N2 | > 100 µM | > 100 µM | > 100 µM | > 100 µM | > 100 µM | > 100 µM | > 100 µM | > 100 µM | > 100 µM | > 100 µM | – | – | – | – | – | – | – | – | – |
| NC1=NS(=O)(=O)Nc2nc(-c3cccs3)[nH]c21 | > 100 µM | > 100 µM | > 100 µM | > 100 µM | – | > 100 µM | > 100 µM | > 100 µM | > 100 µM | > 100 µM | – | – | – | – | – | – | – | – | – |
| C[n+]1c(-c2ccc(/C=N\NC(=O)c3ccc(C(=O)N/N=C/c4ccc(-c5cn6ccsc6[n+]5C)cc4)cc3)cc2)cn2ccsc21 | 58.4 µM | 74.6 µM | 57.8 µM | – | – | 28.5 µM | 36.8 µM | 58.2 µM | 36.4 µM | 54.1 µM | – | – | – | – | – | – | – | – | – |
| COc1c2ccoc2c(S(=O)(=O)Nc2ccc(Cl)cc2)c2oc(C)cc(=O)c12 | > 100 µM | > 100 µM | > 100 µM | > 100 µM | – | > 100 µM | – | > 100 µM | > 93.6 µM | > 100 µM | – | – | – | – | – | – | – | – | – |
